We go through 14 compounds from article PMC9437215, “Synthesis and antibacterial activity evaluation of N (7) position-modified balofloxacins” (Frontiers in Chemistry, 2022).

≈ marks a conversion by molar mass, not a printed value. Like-named read-outs stand apart in the source and are kept apart here.

Type in all cases: cell-based
One assay deals with MRSA. Briefly: MIC and MBC determinations in vitro, MRSA. The conditions noted are these: MRSA clinical isolate; for MIC: 24 h culture, read-out: MIC; for MBC: solid medium 24 h. How it is done:
(§1) The three strains of MRSA, P. aeruginosa, and E. coli used in this experiment were from clinical isolates, which were provided by the People’s Liberation Army 304 Hospital.
(§2) To evaluate the antibacterial activities of newly synthesized N (7) position modified fluoroquinolones, the minimum inhibitory (MIC) and bactericidal (MBC) concentrations of these compounds toward bacteria were measured.

The subject of a further assay is P. aeruginosa. Briefly: MIC and MBC determinations in vitro, P. aeruginosa. The conditions noted are these: Pseudomonas aeruginosa, P. aeruginosa clinical isolate; for MIC: 24 h culture, read-out: MIC; for MBC: solid medium 24 h, read-out: MBC. How it is done: as §1, §2
A further assay relates to E. coli. Briefly: MIC and MBC determinations in vitro, E. coli. Conditions: Escherichia coli, E. coli clinical isolate; for MIC: 24 h culture; for MBC: solid medium 24 h. The protocol:
as §1, §2

[1] abbreviates: Staphylococcus aureus, MRSA, 24 h.
The mark [2] stands for this setting: Staphylococcus aureus, MRSA, 24 h, read-out: MBC.

As a reminder, the MIC is the lowest concentration found to suppress growth. The term MBC denotes the lowest tested concentration that kills the bacteria rather than only halting them. Take `CCC(=O)N(C)C1CCCN(c2c(F)cc3c(=O)c(C(=O)O)cn(C4CC4)c3c2OC)C1` (centres unmarked) [Compound 3-e, 1-Cyclopropyl-6-fluoro-8-methoxy-7-(3-(N-methylpropionamido)piperidin-1-yl)-4-oxo-1,4-dihydroquinoline-3-carboxylic acid]: the minimum inhibitory concentration (MIC) in the assay with MRSA (setting [1]) worked out at 0.039 µg/mL (≈ 0.0875 µM); with P. aeruginosa, 0.078 µg/mL (≈ 0.175 µM); against E. coli, 5 µg/mL (≈ 11.2 µM). Further, the MBC came to 0.078 µg/mL (≈ 0.175 µM) in the assay on MRSA (setting [2]), 0.078 µg/mL (≈ 0.175 µM) with P. aeruginosa and 10 µg/mL (≈ 22.4 µM) in the assay with E. coli.
With `COc1c(N2CCCC(N(C)C(=O)CN)C2)c(F)cc2c(=O)c(C(=O)O)cn(C3CC3)c12` (centres unmarked) [Compound 20-e, 7-(3-(2-Amino-N-methylacetamido)piperidin-1-yl)-1-cyclopropyl-6-fluoro-8-methoxy-4-oxo-1,4-dihydroquinoline-3-carboxylic acid], the values for the minimum inhibitory concentration (MIC) in the assay with MRSA (setting [1]), in the assay with P. aeruginosa and against E. coli were 25 µg/mL (≈ 56 µM), 0.78 µg/mL (≈ 1.75 µM) and 25 µg/mL (≈ 56 µM), respectively. Further, the values for the MBC in the assay on MRSA (setting [2]), in the assay on P. aeruginosa and against E. coli were 50 µg/mL (≈ 112 µM), 6.25 µg/mL (≈ 14 µM) and 50 µg/mL (≈ 112 µM), respectively.
Turning to `COc1c(N2CC3CCCN(C(=O)Cn4cncn4)C3C2)c(F)cc2c(=O)c(C(=O)O)cn(C3CC3)c12` (centres unmarked) [Compound f-1, 7-(1-(2-(1H-1,2,4-Triazol-1-yl)acetyl)octahydro-6H-pyrrolo[3,4-b]pyridin-6-yl)-1-cyclopropyl-6-fluoro-8-methoxy-4-oxo-1,4-dihydroquinoline-3-carboxylic acid], the values for the minimal inhibitory concentration (MIC) in the assay with MRSA (setting [1]), in the assay with P. aeruginosa and in the assay with E. coli were 0.313 µg/mL (≈ 0.613 µM), 1.25 µg/mL (≈ 2.45 µM) and 0.625 µg/mL (≈ 1.22 µM), respectively. The MBC in the assay with MRSA (setting [2]), in the assay on P. aeruginosa and in the assay with E. coli was 2.5 µg/mL (≈ 4.9 µM) throughout.
Regarding `COc1c(N2CCCC(N(C)C(=O)c3cccnc3)C2)c(F)cc2c(=O)c(C(=O)O)cn(C3CC3)c12` (centres unmarked) [Compound 15-e, 1-Cyclopropyl-6-fluoro-8-methoxy-7-(3-(N-methylnicotinamido)piperidin-1-yl)-4-oxo-1,4-dihydroquinoline-3-carboxylic acid], the MIC with MRSA (setting [1]) came out at 0.078 µg/mL (≈ 0.158 µM); in the assay on P. aeruginosa, 0.078 µg/mL (≈ 0.158 µM); in the assay on E. coli, 10 µg/mL (≈ 20.2 µM). Moreover, the MBC in the assay with MRSA (setting [2]) amounted to 0.156 µg/mL (≈ 0.315 µM); with P. aeruginosa, 0.156 µg/mL (≈ 0.315 µM); in the assay on E. coli it was 20 µg/mL (≈ 40.4 µM).
In the case of `COc1c(N2CCCC(N(C)C(=O)C(C)N)C2)c(F)cc2c(=O)c(C(=O)O)cn(C3CC3)c12` (centres unmarked) [Compound 19-e, 7-(3-(2-Amino-N-methylpropanamido)piperidin-1-yl)-1-cyclopropyl-6-fluoro-8-methoxy-4-oxo-1,4-dihydroquinoline-3-carboxylic acid], the figures for the minimal inhibitory concentration (MIC) in the assay with MRSA (setting [1]), in the assay with P. aeruginosa and against E. coli were 1.56 µg/mL (≈ 3.39 µM), 0.39 µg/mL (≈ 0.847 µM) and 12.5 µg/mL (≈ 27.1 µM), respectively. The minimal bactericidal concentration (MBC) in the assay with MRSA (setting [2]) amounted to 3.12 µg/mL (≈ 6.79 µM); with P. aeruginosa it was 1.56 µg/mL (≈ 3.39 µM); in the assay on E. coli, 25 µg/mL (≈ 54.3 µM).
Turning to `CCCCCC(=O)N(C)C1CCCN(c2c(F)cc3c(=O)c(C(=O)O)cn(C4CC4)c3c2OC)C1` (centres unmarked) [Compound 6-e, 1-Cyclopropyl-6-fluoro-8-methoxy-7-(3-(N-methylhexanamido)piperidin-1-yl)-4-oxo-1,4-dihydroquinoline-3-carboxylic acid], the MIC with MRSA (setting [1]) was found to be 0.156 µg/mL (≈ 0.32 µM); with P. aeruginosa it was 0.313 µg/mL (≈ 0.642 µM); against E. coli, 20 µg/mL (≈ 41 µM). The MBC was found to be 0.625 µg/mL (≈ 1.28 µM) with MRSA (setting [2]), 0.625 µg/mL (≈ 1.28 µM) with P. aeruginosa and 20 µg/mL (≈ 41 µM) in the assay on E. coli.
`COc1c(N2C[C@@H]3CCCN[C@@H]3C2)c(F)cc2c(=O)c(C(=O)O)cn(C3CC3)c12` [Compound 1f, moxifloxacin, reference compound]: the minimal inhibitory concentration (MIC) in the assay on MRSA (setting [1]), in the assay on P. aeruginosa and against E. coli was 0.039 µg/mL (≈ 0.0972 µM) throughout. Also, the minimal bactericidal concentration (MBC) in the assay with MRSA (setting [2]), with P. aeruginosa and in the assay with E. coli was 0.039 µg/mL (≈ 0.0972 µM) throughout.
As for `COc1c(N2CCCC(N(C)C(=O)Cn3cncn3)C2)c(F)cc2c(=O)c(C(=O)O)cn(C3CC3)c12` (centres unmarked) [Compound e-1, 1-Cyclopropyl-6-fluoro-8-methoxy-7-(3-(N-methyl-2-(1H-1,2,4-triazol-1-yl)acetamido)piperidin-1-yl)-4-oxo-1,4-dihydroquinoline-3-carboxylic acid], the minimal bactericidal concentration (MBC) in the assay with MRSA was found to be 0.313 µg/mL (≈ 0.628 µM); in the assay on MRSA (setting [2]) it was 0.312 µg/mL (≈ 0.626 µM); with P. aeruginosa, 0.313 µg/mL (≈ 0.628 µM); against E. coli it was 0.313 µg/mL (≈ 0.628 µM). Moreover, the minimum inhibitory concentration (MIC) in the assay on MRSA (setting [1]), in the assay with P. aeruginosa and against E. coli was 0.156 µg/mL (≈ 0.313 µM) each time.
Consider `COc1c(N2CCCC(N(C)C(=O)c3ccccc3)C2)c(F)cc2c(=O)c(C(=O)O)cn(C3CC3)c12` (centres unmarked) [Compound 12-e, 1-Cyclopropyl-6-fluoro-8-methoxy-7-(3-(N-methylbenzamido)piperidin-1-yl)-4-oxo-1,4-dihydroquinoline-3-carboxylic acid], for which the minimal inhibitory concentration (MIC) in the assay with MRSA (setting [1]) was 0.078 µg/mL (≈ 0.158 µM); with P. aeruginosa, 0.156 µg/mL (≈ 0.316 µM); in the assay with E. coli, 20 µg/mL (≈ 40.5 µM). Besides, the minimum bactericidal concentration (MBC) amounted to 0.313 µg/mL (≈ 0.634 µM) in the assay with MRSA (setting [2]), 0.313 µg/mL (≈ 0.634 µM) in the assay on P. aeruginosa and 20 µg/mL (≈ 40.5 µM) with E. coli.
Regarding `CCCCC(=O)N(C)C1CCCN(c2c(F)cc3c(=O)c(C(=O)O)cn(C4CC4)c3c2OC)C1` (centres unmarked) [Compound 5-e, 1-Cyclopropyl-6-fluoro-8-methoxy-7-(3-(N-methylpentanamido)piperidin-1-yl)-4-oxo-1,4-dihydroquinoline-3-carboxylic acid], the MIC in the assay with MRSA (setting [1]) amounted to 0.078 µg/mL (≈ 0.165 µM); with P. aeruginosa, 0.078 µg/mL (≈ 0.165 µM); in the assay on E. coli it was 10 µg/mL (≈ 21.1 µM). In addition, the results for the MBC in the assay on MRSA (setting [2]), in the assay with P. aeruginosa and against E. coli were 0.156 µg/mL (≈ 0.329 µM), 0.156 µg/mL (≈ 0.329 µM) and 20 µg/mL (≈ 42.2 µM), respectively.
For the compound `CCCC(=O)N(C)C1CCCN(c2c(F)cc3c(=O)c(C(=O)O)cn(C4CC4)c3c2OC)C1` (centres unmarked) [Compound 4-e, 1-Cyclopropyl-6-fluoro-8-methoxy-7-(3-(N-methylbutyramido)piperidin-1-yl)-4-oxo-1,4-dihydroquinoline-3-carboxylic acid], the MIC was determined as 0.039 µg/mL (≈ 0.0849 µM) in the assay with MRSA (setting [1]), 0.078 µg/mL (≈ 0.17 µM) in the assay with P. aeruginosa and 5 µg/mL (≈ 10.9 µM) with E. coli. For the same compound, the minimum bactericidal concentration (MBC) is 0.078 µg/mL (≈ 0.17 µM) in the assay on MRSA (setting [2]), 0.078 µg/mL (≈ 0.17 µM) in the assay with P. aeruginosa and 20 µg/mL (≈ 43.5 µM) with E. coli.
Consider `CCCCCCC(=O)N(C)C1CCCN(c2c(F)cc3c(=O)c(C(=O)O)cn(C4CC4)c3c2OC)C1` (centres unmarked) [Compound 7-e, 1-Cyclopropyl-6-fluoro-8-methoxy-7-(3-(N-methylheptanamido)piperidin-1-yl)-4-oxo-1,4-dihydroquinoline-3-carboxylic acid], for which the results for the minimum inhibitory concentration (MIC) with MRSA (setting [1]), in the assay on P. aeruginosa and with E. coli were 0.313 µg/mL (≈ 0.624 µM), 0.625 µg/mL (≈ 1.25 µM) and > 40 µg/mL, respectively. The MBC is 0.625 µg/mL (≈ 1.25 µM) in the assay on MRSA (setting [2]), 1.25 µg/mL (≈ 2.49 µM) in the assay on P. aeruginosa and > 40 µg/mL in the assay with E. coli.
For the compound `COc1c(N2CCCC(N(C)C)C2)c(F)cc2c(=O)c(C(=O)O)cn(C3CC3)c12` (centres unmarked) [Compound 21-e, 1-Cyclopropyl-7-(3-(dimethylamino)piperidin-1-yl)-6-fluoro-8-methoxy-4-oxo-1,4-dihydroquinoline-3-carboxylic acid], the minimal bactericidal concentration (MBC) in the assay on MRSA was 0.313 µg/mL (≈ 0.776 µM); in the assay with MRSA (setting [2]), 0.31 µg/mL (≈ 0.768 µM); in the assay with P. aeruginosa, 0.313 µg/mL (≈ 0.776 µM); against E. coli it was 0.625 µg/mL (≈ 1.55 µM). Further, the MIC stood at 0.078 µg/mL (≈ 0.193 µM) with MRSA (setting [1]), 0.313 µg/mL (≈ 0.776 µM) with P. aeruginosa and 0.625 µg/mL (≈ 1.55 µM) against E. coli.
Take `COc1c(N2CC3CCCN(C(C)=O)C3C2)c(F)cc2c(=O)c(C(=O)O)cn(C3CC3)c12` (centres unmarked) [Compound 2-f, 7-(1-Acetyloctahydro-6H-pyrrolo[3,4-b]pyridin-6-yl)-1-cyclopropyl-6-fluoro-8-methoxy-4-oxo-1,4-dihydroquinoline-3-carboxylic acid]: the MIC in the assay on MRSA (setting [1]), in the assay with P. aeruginosa and in the assay on E. coli was 0.313 µg/mL (≈ 0.706 µM) throughout. The MBC in the assay with MRSA (setting [2]), with P. aeruginosa and with E. coli was 0.625 µg/mL (≈ 1.41 µM) throughout.
